Experimental data: ChEMBL document CHEMBL5260820, “Discovery of novel steroidal histamine H3 receptor antagonists/inverse agonists” (Bioorg Med Chem Lett, 2017)
Converted amounts (≈) assume the structure as drawn.

Assays:
Histamine H3 receptor [1] = molecular target: T1, Histamine H3 receptor (Homo sapiens, UniProt Q9Y5N1); experiment: Inverse agonist activity at recombinant human histamine H3 receptor expressed in CHO-K1 cells preincubated for 10 mins followed by [35S]GTPgammaS addition and measured after 60 mins by TopCount NXT based scintillation analysis; format: cell-based
Histamine H3 receptor [2] = molecular target: Histamine H3 receptor (Rattus norvegicus, UniProt Q9QYN8); experiment: Displacement of N-alpha-[methyl-3H]-methylhistamine dihydrochloride from Sprague-Dawley rat brain membrane histamine H3 receptor assessed as inhibition constant incubated for 30 mins by liquid scintillation counting analysis; format: cell membranes
Histamine H3 receptor [3] = molecular target: T1, Histamine H3 receptor; experiment: Antagonist activity at human histamine H3 receptor expressed in CHO-K1 cells assessed as inhibition of imetit-stimulation ERK1/2 phosphorylation by ELISA analysis; format: cell-based
Histamine H3 receptor [4] = molecular target: T1, Histamine H3 receptor; experiment: Displacement of N-alpha-[methyl-3H]-methylhistamine dihydrochloride from recombinant human histamine H3 receptor expressed in CHO-K1 cells assessed as inhibition constant incubated for 30 mins by liquid scintillation analysis; format: cell-based
Rattus norvegicus [5] = organism: Rattus norvegicus; experiment: Displacement of [3H]quinuclidinyl benzilate from Wistar rat cortex muscarinic AChR at 1 uM by liquid scintillation counting analysis relative to control; format: tissue-based
[6] = Stability in rat microsomes; format: ADME, Microsome
[7] = Ratio AUC in Wistar rat brain to plasma at 3 mg/kg, po or iv measured upto 5 hrs by HPLC-MS/MS analysis; format: ADME, organism-based; conditions: brain and plasma, read-out: Ratio AUC
[8] = Tmax in Wistar rat at 3 mg/kg, po or iv measured upto 5 hrs by HPLC-MS/MS analysis; format: ADME, organism-based; conditions: in vivo
[9] = Bioavailability in Wistar rat at 3 mg/kg, po or iv measured upto 5 hrs by HPLC-MS/MS analysis; format: ADME, organism-based; conditions: in vivo
[10] = Terminal half-life in Wistar rat brain at 3 mg/kg, po or iv measured upto 5 hrs by HPLC-MS/MS analysis; format: ADME, organism-based; conditions: read-out: beta t1/2 (converted)
[11] = Terminal half-life in Wistar rat plasma at 3 mg/kg, po or iv measured upto 5 hrs by HPLC-MS/MS analysis; format: ADME, organism-based; conditions: read-out: beta t1/2 (converted)
[12] = Apparent permeability in vinblastine treated human CaCo-2 cells; format: ADME, cell-based
[13] = Volume of distribution in Wistar rat at 3 mg/kg, po or iv measured upto 5 hrs by HPLC-MS/MS analysis; format: ADME, organism-based; conditions: in vivo
[14] = Displacement of [3H]quinuclidinyl benzilate from Wistar rat cortex muscarinic AChR assessed as inhibition constant by liquid scintillation counting analysis; format: tissue-based
[15] = Stability in human microsomes; format: ADME, Microsome
[16] = Thermodynamic […] of the compound measured after 24 hrs by HPLC-UV-MS analysis; format: physicochemical; conditions: read-out: Therm_solubility
[17] = Selectivity index, ratio of Ki for displacement of [3H]quinuclidinyl benzilate from Wistar rat cortex muscarinic AChR to Ki for N-alpha-[methyl-3H]-methylhistamine dihydrochloride from Sprague-Dawley rat brain membrane histamine H3 receptor
Rattus norvegicus [18] = experiment: Anti-dipsogenic activity in imetit-induced Wistar rat model assessed as inhibition of imetit-induced water intake at 10 mg/kg, po preadministered for 30 mins followed by imetit stimulation and measured after 40 mins relative to control; format: functional; conditions: 1.167 h, time 70 min
Histamine H3 receptor [19] = molecular target: T1, Histamine H3 receptor; experiment: Inverse agonist activity at recombinant human histamine H3 receptor expressed in CHO-K1 cells assessed as maximal efficacy preincubated for 10 mins followed by [35S]GTPgammaS addition and measured after 60 mins by TopCount NXT based scintillation analysis relative to control; format: cell-based; conditions: time 70.0 min
Rattus norvegicus [20] = organism: Rattus norvegicus; experiment: Displacement of [3H]quinuclidinyl benzilate from Wistar rat cortex muscarinic AChR at 3 uM by liquid scintillation counting analysis relative to control; format: tissue-based
[21] = molecular target: Histamine H1 receptor (Homo sapiens) (UniProt P35367); experiment: Displacement of [3H]pyrilamine from recombinant human histamine H1 receptor expressed in CHO-K1 cell membrane at 1 uM incubated for 30 mins by liquid scintillation counter analysis relative to control; format: cell membranes
[22] = molecular target: Estrogen receptor beta (Homo sapiens) (UniProt Q92731); experiment: Binding affinity to Estrogen receptor beta (unknown origin) at 1 uM by displacement assay relative to control
[23] = molecular target: Histamine H4 receptor (Homo sapiens) (UniProt Q9H3N8); experiment: Displacement of [3H]histamine from human histamine H4 receptors expressed in CHO-K1 cell membrane at 1 uM incubated for 30 mins by scintillation counter analysis relative to control; format: cell membranes
[24] = molecular target: T2, Estrogen receptor (Homo sapiens) (UniProt P03372); experiment: Binding affinity to Estrogen receptor alpha (unknown origin) at 1 uM by displacement assay relative to control
T2 sequence (whole entry): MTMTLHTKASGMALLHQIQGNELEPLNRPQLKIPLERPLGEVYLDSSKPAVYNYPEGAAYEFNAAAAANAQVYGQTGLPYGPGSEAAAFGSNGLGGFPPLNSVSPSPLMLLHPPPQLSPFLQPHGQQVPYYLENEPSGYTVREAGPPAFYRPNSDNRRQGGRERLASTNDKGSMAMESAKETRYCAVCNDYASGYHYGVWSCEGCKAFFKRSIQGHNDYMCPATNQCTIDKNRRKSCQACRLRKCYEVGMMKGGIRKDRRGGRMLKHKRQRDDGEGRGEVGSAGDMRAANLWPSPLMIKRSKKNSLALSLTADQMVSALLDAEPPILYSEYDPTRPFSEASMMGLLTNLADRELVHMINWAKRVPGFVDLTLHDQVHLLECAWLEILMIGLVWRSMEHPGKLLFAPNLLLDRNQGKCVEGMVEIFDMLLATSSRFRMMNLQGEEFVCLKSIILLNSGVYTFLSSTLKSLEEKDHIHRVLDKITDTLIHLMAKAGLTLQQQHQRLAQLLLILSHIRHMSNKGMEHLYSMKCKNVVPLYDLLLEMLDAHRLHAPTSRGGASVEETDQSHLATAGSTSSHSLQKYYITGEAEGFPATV

[25] = molecular target: Histamine H2 receptor (Homo sapiens) (UniProt P25021); experiment: Displacement of [3H]tiotidine from recombinant human histamine H2 receptor expressed in CHO-K1 cell membrane at 1 uM incubated for 45 mins by Scintillation counter analysis relative to control; format: cell membranes
[26] = molecular target: Histamine H3 receptor (Rattus norvegicus) (UniProt Q9QYN8); experiment: Displacement of N-alpha-[methyl-3H]-methylhistamine dihydrochloride from Sprague-Dawley rat brain membrane histamine H3 receptor at 300 nM incubated for 30 mins by liquid scintillation counting analysis relative to control; format: cell membranes
Sequence of Histamine H3 receptor (Rattus norvegicus) (Q9QYN8 whole entry): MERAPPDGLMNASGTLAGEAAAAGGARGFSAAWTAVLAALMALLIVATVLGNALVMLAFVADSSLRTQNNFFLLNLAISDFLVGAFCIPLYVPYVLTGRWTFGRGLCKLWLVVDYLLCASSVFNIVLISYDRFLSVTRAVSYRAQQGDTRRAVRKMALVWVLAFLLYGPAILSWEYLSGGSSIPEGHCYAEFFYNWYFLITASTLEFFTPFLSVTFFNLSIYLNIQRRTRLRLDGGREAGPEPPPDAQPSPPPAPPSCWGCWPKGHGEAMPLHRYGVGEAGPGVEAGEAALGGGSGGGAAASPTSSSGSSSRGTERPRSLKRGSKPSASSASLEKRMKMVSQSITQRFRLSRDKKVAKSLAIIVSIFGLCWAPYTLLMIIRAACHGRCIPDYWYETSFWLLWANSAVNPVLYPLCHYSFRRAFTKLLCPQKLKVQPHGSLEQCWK

Sequence of Histamine H3 receptor (Rattus norvegicus, UniProt Q9QYN8) (Q9QYN8 whole entry): as above
T1 sequence (Q9Y5N1 whole entry): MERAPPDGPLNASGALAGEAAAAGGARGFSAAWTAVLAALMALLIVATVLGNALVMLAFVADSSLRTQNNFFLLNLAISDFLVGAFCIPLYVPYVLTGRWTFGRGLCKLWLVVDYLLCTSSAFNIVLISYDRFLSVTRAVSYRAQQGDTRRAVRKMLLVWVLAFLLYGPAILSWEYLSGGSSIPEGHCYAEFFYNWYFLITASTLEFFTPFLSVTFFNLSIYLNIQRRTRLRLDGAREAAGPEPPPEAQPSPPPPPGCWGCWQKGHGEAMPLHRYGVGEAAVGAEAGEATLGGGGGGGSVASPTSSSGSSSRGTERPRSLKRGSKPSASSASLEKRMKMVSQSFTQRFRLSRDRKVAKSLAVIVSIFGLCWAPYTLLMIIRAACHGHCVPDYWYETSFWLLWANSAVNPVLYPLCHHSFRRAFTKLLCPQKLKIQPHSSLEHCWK
Sequence of Estrogen receptor beta (Homo sapiens) (Q92731 whole entry): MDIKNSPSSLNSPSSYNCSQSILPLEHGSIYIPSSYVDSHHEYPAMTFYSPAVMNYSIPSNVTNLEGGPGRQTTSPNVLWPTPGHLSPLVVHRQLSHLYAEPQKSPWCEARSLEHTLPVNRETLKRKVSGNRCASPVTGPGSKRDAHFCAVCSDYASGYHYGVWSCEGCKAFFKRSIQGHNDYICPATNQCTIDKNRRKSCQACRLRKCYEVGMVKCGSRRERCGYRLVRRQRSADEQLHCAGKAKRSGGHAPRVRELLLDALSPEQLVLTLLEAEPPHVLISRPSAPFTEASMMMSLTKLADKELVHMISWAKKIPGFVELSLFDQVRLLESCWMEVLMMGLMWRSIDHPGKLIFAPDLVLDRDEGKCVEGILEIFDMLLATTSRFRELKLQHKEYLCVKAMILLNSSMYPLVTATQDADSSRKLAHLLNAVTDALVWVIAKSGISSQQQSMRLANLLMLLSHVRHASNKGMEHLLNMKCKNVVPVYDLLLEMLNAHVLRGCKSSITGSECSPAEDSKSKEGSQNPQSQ
Sequence of Histamine H4 receptor (Homo sapiens) (Q9H3N8 whole entry): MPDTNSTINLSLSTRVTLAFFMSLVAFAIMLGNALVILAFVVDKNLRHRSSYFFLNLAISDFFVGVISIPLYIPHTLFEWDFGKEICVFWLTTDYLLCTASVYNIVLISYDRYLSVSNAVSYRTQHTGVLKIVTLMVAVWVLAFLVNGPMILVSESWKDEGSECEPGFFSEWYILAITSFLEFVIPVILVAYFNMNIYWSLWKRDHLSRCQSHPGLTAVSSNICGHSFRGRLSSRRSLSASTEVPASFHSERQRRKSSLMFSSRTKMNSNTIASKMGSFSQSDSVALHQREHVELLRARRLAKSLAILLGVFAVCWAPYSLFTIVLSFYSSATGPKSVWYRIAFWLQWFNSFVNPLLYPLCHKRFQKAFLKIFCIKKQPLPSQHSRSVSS
Sequence of Histamine H2 receptor (Homo sapiens) (P25021 whole entry): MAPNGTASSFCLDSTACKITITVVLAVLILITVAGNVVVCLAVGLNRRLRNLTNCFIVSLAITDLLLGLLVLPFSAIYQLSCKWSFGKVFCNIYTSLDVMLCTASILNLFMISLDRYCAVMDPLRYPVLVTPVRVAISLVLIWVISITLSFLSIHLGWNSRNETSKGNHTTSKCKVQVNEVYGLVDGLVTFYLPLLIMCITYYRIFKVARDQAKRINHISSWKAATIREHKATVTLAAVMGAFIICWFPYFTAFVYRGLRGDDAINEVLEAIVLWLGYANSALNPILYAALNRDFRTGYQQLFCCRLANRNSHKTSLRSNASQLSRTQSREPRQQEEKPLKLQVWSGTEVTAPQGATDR
Sequence of Histamine H1 receptor (Homo sapiens) (P35367 whole entry): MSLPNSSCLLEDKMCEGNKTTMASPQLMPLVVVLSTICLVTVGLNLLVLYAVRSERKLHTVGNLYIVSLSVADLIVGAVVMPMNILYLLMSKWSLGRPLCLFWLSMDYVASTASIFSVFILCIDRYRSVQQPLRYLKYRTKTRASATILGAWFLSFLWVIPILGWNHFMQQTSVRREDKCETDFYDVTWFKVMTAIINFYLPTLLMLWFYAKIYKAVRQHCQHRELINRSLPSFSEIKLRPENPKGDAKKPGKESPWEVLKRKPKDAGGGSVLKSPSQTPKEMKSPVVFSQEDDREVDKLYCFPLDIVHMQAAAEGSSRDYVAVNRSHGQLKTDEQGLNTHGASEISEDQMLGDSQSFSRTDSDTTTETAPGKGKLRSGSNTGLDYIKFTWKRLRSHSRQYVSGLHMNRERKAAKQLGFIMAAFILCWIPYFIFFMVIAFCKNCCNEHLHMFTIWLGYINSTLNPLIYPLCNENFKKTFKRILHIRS

SMILES	EC50 (Histamine H3 receptor [1]) [nM]	Ki (Histamine H3 receptor [2]) [nM]	IC50 (Histamine H3 receptor [3]) [nM]	Ki (Histamine H3 receptor [4]) [nM]	Activity (Rattus norvegicus [5]) [%]	also measured
C[C@]12CC[C@@H]3c4ccc(OCCCN5CCCCCC5)cc4CC[C@H]3[C@@H]1CC[C@@H]2N1CCCC1	0.6	2.1	17.5	0.6	77	
C[C@]12CC[C@@H]3c4ccc(OCCCCN5CCCC5)cc4CC[C@H]3[C@@H]1CC[C@@H]2N1CCCC1	0.7	24.8	7.5	0.8	73	
C[C@]12CC[C@@H]3c4ccc(OCCCN5CCC(C(N)=O)CC5)cc4CC[C@H]3[C@@H]1CC[C@@H]2N1CCCC1	3.9	3.1	3	7	37	
C[C@]12CC[C@@H]3c4ccc(OCc5ccccn5)cc4CC[C@H]3[C@@H]1CC[C@@H]2N1CCCC1	1	7.6	50.8	2.2		Stability [6]: 67%; Kp at 5 h [7]: 41.1; Tmax [8]: 1 h; bioavailability [9]: 25.4%; half-life [10]: 1.5 h; half-life [11]: 1.5 h; Papp [12]: 10.1 ×10⁻⁶ cm/s; Vd [13]: 19.7 L/kg; Ki [14]: 1080 nM; Stability [15]: 93%; solubility thermodynamic at 24 h [16]: 93 µM (≈ 38.7 µg/mL); Ratio Ki [17]: 141; inhibition in vivo at 10 mg/kg (Rattus norvegicus [18]): 122%; Emax (Histamine H3 receptor [19]): 23%; Activity (Rattus norvegicus [20]): 51%
S=C(NC1CCCCC1)N1CCC(c2cnc[nH]2)CC1 [THIOPERAMIDE]		23				Emax (Histamine H3 receptor [19]; filed as inverse agonist): 50%
Clc1ccc(CCCOCCCN2CCCCC2)cc1 [PITOLISANT]						Ki [14]: 19 nM; Emax (Histamine H3 receptor [19]; filed as inverse agonist): 55%
C[C@@]12CC[C@@H]3c4ccc(OCCCN5CCCC5)cc4CC[C@H]3[C@@H]1CCC2N1CCCC1 (stereo partly drawn)	0.8	6.1	16	1.4	71	
CC1CCCN1CCCOc1ccc2c(c1)CC[C@@H]1[C@@H]2CC[C@]2(C)[C@@H](N3CCCC3)CC[C@@H]12 (mixture of isomers)	0.4	3.6	12.1	0.5	69	Ki [14]: 224 nM; Ratio Ki [17]: 62
CC[C@]12CC[C@@H]3c4ccc(OCCCN5CCCC5)cc4CC[C@H]3[C@@H]1CC[C@@H]2N1CCCC1	0.9	16.6	16	0.8	69	
C[C@]12CC[C@@H]3c4ccc(OCCN5CCCC5)cc4CC[C@H]3[C@@H]1CC[C@@H]2N1CCCC1	0.3	23.1	29	1.9	69	
C[C@]12CC[C@@H]3c4ccc(OCCCN5CCCC5)cc4CC[C@H]3[C@@H]1CC[C@@H]2N1CCCC1	0.1	2.4	6.1	0.6	74	Activity [21]: 64%; Ki [14]: 110 nM; Activity [22]: 26%; Activity [23]: 36%; Activity [24]: 19%; Activity [25]: 44%
C[C@]12CC[C@@H]3c4ccc(OCc5ccncc5)cc4CC[C@H]3[C@@H]1CC[C@@H]2N1CCCC1		7.3		0.87	51	
C[C@]12CC[C@@H]3c4ccc(OCCCN5CCC(O)CC5)cc4CC[C@H]3[C@@H]1CC[C@@H]2N1CCCC1	4.4	24.3	4.2	5	55	
C[C@]12CC[C@@H]3c4ccc(OCc5ccc(Cl)cn5)cc4CC[C@H]3[C@@H]1CC[C@@H]2N1CCCC1		49		1.6		Ki [14]: 705 nM; Activity (Rattus norvegicus [20]): 66%
C[C@H]1[C@H]2CC[C@H]3[C@@H]4CC=C5C[C@@H](N(C)C)CC[C@]5(C)[C@H]4CC[C@]23CN1C					84	Activity [26]: 34%
C[C@]12CC[C@@H]3c4ccc(OCCCN5CCNC(=O)C5)cc4CC[C@H]3[C@@H]1CC[C@@H]2N1CCCC1	0.6	3.2	17.4	0.6	73	
C[C@@H]1Cc2cc(OCCCN3CCCC3)ccc2[C@H]2CC[C@]3(C)[C@@H](N4CCCC4)CC[C@H]3[C@H]12	0.2	18.3	12	1.2	72	
C[C@H]1CCCN1CCCOc1ccc2c(c1)CC[C@@H]1[C@@H]2CC[C@]2(C)[C@@H](N3CCCC3)CC[C@@H]12	0.6	5.6	11.6	0.3	76	Ki [14]: 122 nM; Ratio Ki [17]: 22
C[C@]12CC[C@@H]3c4ccc(OCCCN5CCC(O)C5)cc4CC[C@H]3[C@@H]1CC[C@@H]2N1CCCC1 (stereo partly drawn)	1.2	16.8	3.9	5.2	64	
C[C@]12CC[C@@H]3c4ccc(OCc5cccnc5)cc4CC[C@H]3[C@@H]1CC[C@@H]2N1CCCC1		19		3		Ki [14]: 797 nM; Activity (Rattus norvegicus [20]): 57%
C[C@]12CC[C@H]3[C@@H](CC=C4C[C@@H](OCCCN5CCCC5)CC[C@@]43C)[C@@H]1CC[C@@H]2N1CCCC1		10.2		4.3		Activity (Rattus norvegicus [20]): 92%
CC(=O)C1CCN(CCCOc2ccc3c(c2)CC[C@@H]2[C@@H]3CC[C@]3(C)[C@@H](N4CCCC4)CC[C@@H]23)CC1	1.4	7.5	14.2	2.7		
CN1CCC[C@H]2[C@@H]3CC[C@H]4C[C@@H](OC(=O)CCN5CCCC5)CC[C@]4(C)[C@H]3CC[C@@]21C		39		10	44	
C[C@]12CC[C@@H]3c4ccc(OCc5ccccc5)cc4CC[C@H]3[C@@H]1CC[C@@H]2N1CCCC1				216	5	
